Legend:
[1] = Solubility in PGMEA at 25° C. (visual check of insoluble matters); assay type: physicochemical
Source text: The evaluation standard is as follows.

[2] = Maximum absorption wavelength in chloroform (Cary 5000 spectrophotometer); assay type: physicochemical; settings: wavelength range 400 to 800 nm
Procedure: In addition, the maximum absorption wavelength was obtained by dissolving 50 mg of each compound in 200 mL of chloroform, adding chloroform to 2 mL of this solution so as to be 200 mL, and measuring the absorbance of the solution in a wavelength range of 400 to 800 nm using Cary 5000 UV-Vis-NIR spectrophotometer (manufactured by Agilent Technologies, Inc.).

## O=C1C(=C2C=CC(=[N+](c3ccccc3)c3cccc4ccccc34)C=C2O)C([O-])=C1c1ccc(N(c2ccccc2)c2cccc3ccccc23)cc1O [SQ-1]
[1]
  Solubility: A (solubility is 20 mg/L or less.)
[2]
  Maximum absorption wavelength: 670 nm

## Cc1ccc(N(c2ccc(C3=C([O-])C(=C4C=CC(=[N+](c5ccc(C)cc5)c5cccc6ccccc56)C=C4O)C3=O)c(O)c2)c2cccc3ccccc23)cc1 [SQ-2]
[1]
  Solubility: B (solubility is more than 20 mg/L and 25 mg or less.)
[2]
  Maximum absorption wavelength: 675 nm

## Cc1cccc(N(c2ccc(C3=C([O-])C(=C4C=CC(=[N+](c5cccc(C)c5)c5cccc6ccccc56)C=C4O)C3=O)c(O)c2)c2cccc3ccccc23)c1 [SQ-3]
[1]
  Solubility: B (solubility is more than 20 mg/L and 25 mg or less.)
[2]
  Maximum absorption wavelength: 675 nm

## Cc1ccccc1N(c1ccc(C2=C([O-])C(=C3C=CC(=[N+](c4ccccc4C)c4cccc5ccccc45)C=C3O)C2=O)c(O)c1)c1cccc2ccccc12 [SQ-4]
[1]
  Solubility: B (solubility is more than 20 mg/L and 25 mg or less.)
[2]
  Maximum absorption wavelength: 675 nm

## Cc1ccc(N(c2ccc(C3=C([O-])C(=C4C=CC(=[N+](c5ccc(C)cc5C)c5cccc6ccccc56)C=C4O)C3=O)c(O)c2)c2cccc3ccccc23)c(C)c1 [SQ-7]
[1]
  Solubility: C (solubility is more than 25 mg/L and 30 mg or less.)
[2]
  Maximum absorption wavelength: 680 nm

## O=C1C(=C2C=CC(=[N+](c3ccc(Cl)cc3)c3cccc4ccccc34)C=C2O)C([O-])=C1c1ccc(N(c2ccc(Cl)cc2)c2cccc3ccccc23)cc1O [SQ-12]
[1]
  Solubility: A (solubility is 20 mg/L or less.)
[2]
  Maximum absorption wavelength: 665 nm

## CCc1ccc(N(c2ccc(C3=C([O-])C(=C4C=CC(=[N+](c5ccc(CC)cc5)c5cccc6ccccc56)C=C4O)C3=O)c(O)c2)c2cccc3ccccc23)cc1 [SQ-13]
[1]
  Solubility: B (solubility is more than 20 mg/L and 25 mg or less.)
[2]
  Maximum absorption wavelength: 675 nm

## CC(C)(C)c1ccc(N(c2ccc(C3=C([O-])C(=C4C=CC(=[N+](c5ccc(C(C)(C)C)cc5)c5cccc6ccccc56)C=C4O)C3=O)c(O)c2)c2cccc3ccccc23)cc1 [SQ-14]
[1]
  Solubility: C (solubility is more than 25 mg/L and 30 mg or less.)
[2]
  Maximum absorption wavelength: 670 nm

## CCOc1ccc(N(c2ccc(C3=C([O-])C(=C4C=CC(=[N+](c5ccc(OCC)cc5)c5cccc6ccccc56)C=C4O)C3=O)c(O)c2)c2cccc3ccccc23)cc1 [SQ-15]
[1]
  Solubility: B (solubility is more than 20 mg/L and 25 mg or less.)
[2]
  Maximum absorption wavelength: 680 nm

## N#Cc1ccc(N(c2ccc(C3=C([O-])C(=C4C=CC(=[N+](c5ccc(C#N)cc5)c5cccc6ccccc56)C=C4O)C3=O)c(O)c2)c2cccc3ccccc23)cc1 [SQ-16]
[1]
  Solubility: A (solubility is 20 mg/L or less.)
[2]
  Maximum absorption wavelength: 660 nm

## CSc1ccc(N(c2ccc(C3=C([O-])C(=C4C=CC(=[N+](c5ccc(SC)cc5)c5cccc6ccccc56)C=C4O)C3=O)c(O)c2)c2cccc3ccccc23)cc1 [SQ-17]
[1]
  Solubility: A (solubility is 20 mg/L or less.)
[2]
  Maximum absorption wavelength: 675 nm

## CN(C)c1ccc(N(c2ccc(C3=C([O-])C(=C4C=CC(=[N+](c5ccc(N(C)C)cc5)c5cccc6ccccc56)C=C4O)C3=O)c(O)c2)c2cccc3ccccc23)cc1 [SQ-18]
[1]
  Solubility: A (solubility is 20 mg/L or less.)
[2]
  Maximum absorption wavelength: 685 nm

## CC(=O)Nc1ccc(N(c2ccc(C3=C([O-])C(=C4C=CC(=[N+](c5ccc(NC(C)=O)cc5)c5cccc6ccccc56)C=C4O)C3=O)c(O)c2)c2cccc3ccccc23)cc1 [SQ-19]
[1]
  Solubility: A (solubility is 20 mg/L or less.)
[2]
  Maximum absorption wavelength: 670 nm

## O=C1C(=C2C=CC(=[N+](c3ccco3)c3cccc4ccccc34)C=C2O)C([O-])=C1c1ccc(N(c2ccco2)c2cccc3ccccc23)cc1O [SQ-25]
[1]
  Solubility: B (solubility is more than 20 mg/L and 25 mg or less.)
[2]
  Maximum absorption wavelength: 665 nm

## O=C1C(=C2C=CC(=[N+](c3cccc4ccccc34)c3cccc4ccccc34)C=C2O)C([O-])=C1c1ccc(N(c2cccc3ccccc23)c2cccc3ccccc23)cc1O [SQ-29]
[1]
  Solubility: A (solubility is 20 mg/L or less.)
[2]
  Maximum absorption wavelength: 680 nm

## O=C1C(=C2C=CC(=[N+](c3ccccc3)c3cc(C(F)(F)F)cc(C(F)(F)F)c3)C=C2O)C([O-])=C1c1ccc(N(c2ccccc2)c2cc(C(F)(F)F)cc(C(F)(F)F)c2)cc1O [SQ-67]
[1]
  Solubility: C (solubility is more than 25 mg/L and 30 mg or less.)
[2]
  Maximum absorption wavelength: 675 nm

## O=C1C(=C2C(O)=CC(=[N+](c3ccc(Cl)cc3)c3cccc4ccccc34)C=C2O)C([O-])=C1c1c(O)cc(N(c2ccc(Cl)cc2)c2cccc3ccccc23)cc1O [SQ-74]
[1]
  Solubility: A (solubility is 20 mg/L or less.)
[2]
  Maximum absorption wavelength: 665 nm

## O=C1C(=C2C(O)=CC(=[N+](c3cccc4ccccc34)c3cccc4ccccc34)C=C2O)C([O-])=C1c1c(O)cc(N(c2cccc3ccccc23)c2cccc3ccccc23)cc1O [SQ-77]
[1]
  Solubility: A (solubility is 20 mg/L or less.)
[2]
  Maximum absorption wavelength: 670 nm

## O=C1C(=C2C(O)=CC(=[N+](c3ccccc3)c3ccc4ccccc4c3)C=C2O)C([O-])=C1c1c(O)cc(N(c2ccccc2)c2ccc3ccccc3c2)cc1O [SQ-96]
[1]
  Solubility: A (solubility is 20 mg/L or less.)
[2]
  Maximum absorption wavelength: 690 nm

## CCOC1=CC(=[N+](c2ccccc2)c2cccc3ccccc23)C=CC1=C1C(=O)C(c2ccc(N(c3ccccc3)c3cccc4ccccc34)cc2OCC)=C1[O-] [SQ-101]
[1]
  Solubility: A (solubility is 20 mg/L or less.)
[2]
  Maximum absorption wavelength: 690 nm

## O=C1C(=C2C(O)=CC(=[N+](c3ccccc3)c3cccc4ccccc34)c3ccccc32)C([O-])=C1c1c(O)cc(N(c2ccccc2)c2cccc3ccccc23)c2ccccc12 [SQ-104]
[1]
  Solubility: A (solubility is 20 mg/L or less.)
[2]
  Maximum absorption wavelength: 695 nm

## O=C1C(=C2C=CC(=[N+](c3ccccc3-c3ccccc3)c3ccccc3[N+](=O)[O-])C=C2O)C([O-])=C1c1ccc(N(c2ccccc2-c2ccccc2)c2ccccc2[N+](=O)[O-])cc1O [SQ-108]
[1]
  Solubility: A (solubility is 20 mg/L or less.)
[2]
  Maximum absorption wavelength: 685 nm

## O=C1C(=C2C=CC(=[N+](c3ccccc3-c3ccccc3)c3ccccc3-c3ccccc3)C=C2O)C([O-])=C1c1ccc(N(c2ccccc2-c2ccccc2)c2ccccc2-c2ccccc2)cc1O [SQ-110]
[1]
  Solubility: A (solubility is 20 mg/L or less.)
[2]
  Maximum absorption wavelength: 675 nm

## CCCCN(CCCC)c1cc(O)c(C2=C([O-])C(=C3C(O)=CC(=[N+](CCCC)CCCC)C=C3O)C2=O)c(O)c1 [SQ-R1, reference compound]
[1]; organic solvent or mixture, thermodynamic from solid
  solubility at 15 min: > 30 µg/mL
[2]
  Maximum absorption wavelength: 655 nm

Source: patent publication US20210130617A1, “COLORING COMPOSITION, FILM, COLOR FILTER, METHOD FOR MANUFACTURING COLOR FILTER, SOLID-STATE IMAGING ELEMENT, AND IMAGE DISPLAY DEVICE” (FUJIFILM Corporation, priority 2018, published 2021)
